Measurements published in patent US20260216053A1, “COSMETIC COMPOSITION CONTAINING HOUTTUYNIA CORDATA FERMENTATION EXTRACT” (DAEBONG LS CO., LTD., priority 2022, published 2026).

What was measured:
Type in all cases: cell-based
[1] = system: hyaluronic acid production in HaCaT cells; test: Production of moisturizing factor hyaluronic acid (HA), ELISA; details: 24 hours, supernatant, FIG. 1 and FIG. 2
Protocol: HaCaT cells, which are skin keratinocytes, were provided by Cell Line Service GmbH (Germany). The cells were cultured in 5% CO2 incubator at 37° C. using Dulbecco's modified Eagle's medium (DMEM) containing 1% penicillin-streptomycin and 10% fetal bovine serum (FBS). Subculturing was performed with 2-3 day intervals. HaCaT cells were seeded at 1.0×10^5 cells/well in a 24-well plate and cultured for 24 hours under the condition of 37° C. and 5% CO2. After the cultured cell medium was replaced with serum-free DMEM, a sample was treated at different concentrations and the cells were cultured for 24 hours. Afterwards, the supernatant from each test group was collected and the amount of hyaluronic acid (HA) produced in the medium was measured. A control group was treated with N-acetylglucosamine at a concentration of 10 mM. The measurement of hyaluronic acid production was performed using the Hyaluronan Quantikine ELISA kit (R&D Systems) according to the method provided by the manufacturer.

HaCaT cells = test: Evaluation of cytotoxicity, EZ-Cytox assay; details: for HaCaT cell growth rate: versus untreated group 100%
Protocol: (§1) HaCaT cells, which are skin keratinocytes, were provided by Cell Line Service GmbH (Germany). The cells were cultured in 5% CO2 incubator at 37° C. using Dulbecco's modified Eagle's medium (DMEM) containing 1% penicillin-streptomycin and 10% fetal bovine serum (FBS). Subculturing was performed with 2-3 day intervals.
The EZ-cytox assay is a representative method for measuring cell viability that utilizes the principle that a water-soluble tetrazolium salt (WST) reacts with the dehydrogenase of living cells to produce an orange-colored, water-soluble formazan.
To examine cytotoxicity, HaCaT cells were seeded at 1.0×10^4 cells/well in a 96-well plate using DMEM medium containing 10% FBS, and cultured under the condition of 37° C. and 5% CO2 for 24 hours. After exchanging the medium with serum-free DMEM, the cultured cells were treated with a sample to be evaluated. After that, EZ-cytox was added to each well and reacted under the condition of 37° C. and 5% CO2 for 30 minutes, and then absorbance was measured at 450 nm using a microplate reader. The average absorbance value for each sample group was calculated, and this value was compared with the absorbance value of the control group to evaluate cell viability.

[2] = system: filaggrin production in HaCaT cells; test: Production of moisturizing factor filaggrin (FLG), ELISA; details: 24 hours, cell lysate, FIG. 3 and FIG. 4
Protocol: as §1
HaCaT cells were seeded at 1.0×10^5 cells/well in a 24-well plate and cultured for 24 hours under the condition of 37° C. and 5% CO2. After the cultured cell medium was replaced with serum-free DMEM, a sample was treated at different concentrations and the cells were cultured for 24 hours. Afterwards, the cells of each test group were lysed and proteins were collected. Then, the amount of filaggrin produced in the culture medium extract was measured. The measurement of filaggrin production was performed using the Filaggrin ELISA kit (Cusabio Biotechnology Co., Ltd) according to the method provided by the manufacturer. The result of measuring the amount of filaggrin produced depending on the quercetin treatment is shown in FIG. 3, and the result of measuring the amount of filaggrin produced depending on the treatment with the extracts of the example and comparative example is shown in FIG. 4.

Which “Production of hyaluronic acid” value [1] does the source give for `O=c1c(O)c(-c2ccc(O)c(O)c2)oc2cc(O)cc(O)c12` [Quercetin, quercetin] here?
Its value is “promoted the production of the moisturizing factor hyaluronic acid”.

What about the “HaCaT cell growth rate” value (HaCaT cells; 25 μM) of the same molecule?
Its value is 104.3 ± 1.3%.

What about the “HaCaT cell growth rate” value (HaCaT cells; 50 μM) of the same molecule?
Its value is 105.9 ± 1.0%.

And the “HaCaT cell growth rate” value (HaCaT cells; 100 μM)?
The value was 109.4 ± 2.1%.

And the “HaCaT cell growth rate” value (HaCaT cells; 200 μM)?
The value was 92.8 ± 2.8%.

And the “Cytotoxicity for the skin keratinocytes” value (HaCaT cells; HaCaT cells, tested concentrations of Table 2)?
The value was “none of the example, comparative example or quercetin exhibited cytotoxicity”.

What about the Production of filaggrin [2] of the same molecule?
Its Production of filaggrin is “promoted the production of the moisturizing factor filaggrin”.
